According to patent US7338950B2, “Amide compounds as ion channel ligands and uses thereof” (Renovis, Inc., priority 2003, dated 2008):

Tested on: VR1 receptor (293 cells expressing capsaicin-insensitive VR1 receptor variants)
Experiment: High throughput screening of VR1 antagonists using a calcium imaging assay (Fura2, pH 5.1 stimulus);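 also: Fura2 ratiometric fluorescence read every 4 s over 3 min, response taken as peak ratio minus baseline before pre-treatment, compound pre-treatment preceding acid challenge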
Conditions: 1 uM compound; inhibition of calcium ion influx

Question: `O=C(Nc1ccc2c(c1)OCCO2)c1ccc(-c2ncccc2Cl)cc1` [Compound 1018] was tested. Which “% Inhibition @ 1 uM” value did it give?
Answer: Its value is “++ (compound exhibited 25-50% inhibition of calcium ion influx induced by capsaicin stimulation)”.

Question: With `COc1cccc(NC(=O)c2ccc(-c3ncccc3Cl)cc2)c1` [Compound 1019] as the compound, how does the “% Inhibition @ 1 uM” value read?
Answer: The value was “+ (compound exhibited 0-25% inhibition of calcium ion influx induced by capsaicin stimulation)”.

Question: How did the “% Inhibition @ 1 uM” value turn out when `O=C(Nc1ccccc1)c1ccc(-c2ncccc2Cl)cc1` [Compound 1020] was run?
Answer: Its value is “+ (compound exhibited 0-25% inhibition of calcium ion influx induced by capsaicin stimulation)”.

Question: With `O=C(Nc1ccc2[nH]ccc2c1)c1ccc(-c2ncccc2Cl)cc1` [Compound 1021] as the compound, how does the “% Inhibition @ 1 uM” value read?
Answer: The value was “++++ (compound exhibited 75% or greater inhibition of calcium ion influx induced by capsaicin stimulation)”.

Question: How did the “% Inhibition @ 1 uM” value turn out when `COc1ccc(NC(=O)c2ccc(-c3ncccc3Cl)cc2)cc1` [Compound 1022] was run?
Answer: Its value is “++ (compound exhibited 25-50% inhibition of calcium ion influx induced by capsaicin stimulation)”.

Question: Which “% Inhibition @ 1 uM” value does the source give for `O=C(Nc1ccncc1)c1ccc(-c2ncccc2Cl)cc1` [Compound 1024] here?
Answer: Its value is “++++ (compound exhibited 75% or greater inhibition of calcium ion influx induced by capsaicin stimulation)”.

Question: For `O=C(Nc1cccnc1)c1ccc(-c2ncccc2Cl)cc1` [Compound 1025], which “% Inhibition @ 1 uM” value is on record?
Answer: The value was “++++ (compound exhibited 75% or greater inhibition of calcium ion influx induced by capsaicin stimulation)”.

Question: `O=C(Nc1cc[nH]n1)c1ccc(-c2ncccc2Cl)cc1` [Compound 1026] was tested. Which “% Inhibition @ 1 uM” value did it give?
Answer: Its value is “+ (compound exhibited 0-25% inhibition of calcium ion influx induced by capsaicin stimulation)”.

Question: Which “% Inhibition @ 1 uM” value does the source give for `N#Cc1ccccc1NC(=O)c1ccc(-c2ncccc2Cl)cc1` [Compound 1028] here?
Answer: Its value is “+ (compound exhibited 0-25% inhibition of calcium ion influx induced by capsaicin stimulation)”.

Question: Which “% Inhibition @ 1 uM” value does the source give for `O=C(Nc1cccc(Cl)c1)c1ccc(-c2ncccc2Cl)cc1` [Compound 1029] here?
Answer: Its value is “+ (compound exhibited 0-25% inhibition of calcium ion influx induced by capsaicin stimulation)”.

Question: How did the “% Inhibition @ 1 uM” value turn out when `COc1ccccc1NC(=O)c1ccc(-c2ncccc2Cl)cc1` [Compound 1030] was run?
Answer: The value was “++++ (compound exhibited 75% or greater inhibition of calcium ion influx induced by capsaicin stimulation)”.

Question: With `O=C(Nc1ccccc1Cl)c1ccc(-c2ncccc2Cl)cc1` [Compound 1032] as the compound, how does the “% Inhibition @ 1 uM” value read?
Answer: Its value is “+ (compound exhibited 0-25% inhibition of calcium ion influx induced by capsaicin stimulation)”.

Question: For `O=C(Nc1ccc(Cl)cc1Cl)c1ccc(-c2ncccc2Cl)cc1` [Compound 1033], which “% Inhibition @ 1 uM” value is on record?
Answer: The value was “+ (compound exhibited 0-25% inhibition of calcium ion influx induced by capsaicin stimulation)”.

Question: Which “% Inhibition @ 1 uM” value does the source give for `COc1ccc(NC(=O)c2ccc(-c3ncccc3Cl)cc2)cc1Cl` [Compound 1034] here?
Answer: Its value is “+ (compound exhibited 0-25% inhibition of calcium ion influx induced by capsaicin stimulation)”.

Question: How did the “% Inhibition @ 1 uM” value turn out when `O=C(Nc1ccc(C(F)(F)F)cc1)c1ccc(-c2ncccc2Cl)cc1` [Compound 1035] was run?
Answer: The value was “++++ (compound exhibited 75% or greater inhibition of calcium ion influx induced by capsaicin stimulation)”.

Question: With `O=C(Nc1ccc(Cl)c(C(F)(F)F)c1)c1ccc(-c2ncccc2Cl)cc1` [Compound 1037] as the compound, how does the “% Inhibition @ 1 uM” value read?
Answer: Its value is “+++ (compound exhibited 50-75% inhibition of calcium ion influx induced by capsaicin stimulation)”.

Question: Which “% Inhibition @ 1 uM” value does the source give for `O=C(Nc1cccc(Br)c1)c1ccc(-c2ncccc2Cl)cc1` [Compound 1038] here?
Answer: The value was “+ (compound exhibited 0-25% inhibition of calcium ion influx induced by capsaicin stimulation)”.

Question: `N#Cc1cccc(NC(=O)c2ccc(-c3ncccc3Cl)cc2)c1` [Compound 1039] was tested. Which “% Inhibition @ 1 uM” value did it give?
Answer: Its value is “+ (compound exhibited 0-25% inhibition of calcium ion influx induced by capsaicin stimulation)”.

Question: With `O=C(Nc1ccccc1CCO)c1ccc(-c2ncccc2Cl)cc1` [Compound 1040] as the compound, how does the “% Inhibition @ 1 uM” value read?
Answer: Its value is “+++ (compound exhibited 50-75% inhibition of calcium ion influx induced by capsaicin stimulation)”.

Question: Which “% Inhibition @ 1 uM” value does the source give for `CC(C)(C)c1ccc(NC(=O)c2ccc(-c3ncccc3Cl)cc2)cc1` [Compound 1041] here?
Answer: Its value is “++++ (compound exhibited 75% or greater inhibition of calcium ion influx induced by capsaicin stimulation)”.

Question: How did the “% Inhibition @ 1 uM” value turn out when `CC(C)c1ccc(NC(=O)c2ccc(-c3ncccc3Cl)cc2)cc1` [Compound 1042] was run?
Answer: The value was “++++ (compound exhibited 75% or greater inhibition of calcium ion influx induced by capsaicin stimulation)”.

Question: `CCCCc1ccc(NC(=O)c2ccc(-c3ncccc3Cl)cc2)cc1` [Compound 1043] was tested. Which “% Inhibition @ 1 uM” value did it give?
Answer: Its value is “++ (compound exhibited 25-50% inhibition of calcium ion influx induced by capsaicin stimulation)”.

Question: For `O=C(Nc1ccc(C2CCCCC2)cc1)c1ccc(-c2ncccc2Cl)cc1` [Compound 1044], which “% Inhibition @ 1 uM” value is on record?
Answer: The value was “++++ (compound exhibited 75% or greater inhibition of calcium ion influx induced by capsaicin stimulation)”.

Question: For `COc1cc(NC(=O)c2ccc(-c3ncccc3Cl)cc2)cc(C(F)(F)F)c1` [Compound 1045], which “% Inhibition @ 1 uM” value is on record?
Answer: The value was “++ (compound exhibited 25-50% inhibition of calcium ion influx induced by capsaicin stimulation)”.

Question: For `O=C(Nc1cccnc1Cl)c1ccc(-c2ncccc2Cl)cc1` [Compound 1047], which “% Inhibition @ 1 uM” value is on record?
Answer: The value was “++ (compound exhibited 25-50% inhibition of calcium ion influx induced by capsaicin stimulation)”.

Question: `O=C(Nc1ccc(Cl)nc1)c1ccc(-c2ncccc2Cl)cc1` [Compound 1048] was tested. Which “% Inhibition @ 1 uM” value did it give?
Answer: Its value is “+ (compound exhibited 0-25% inhibition of calcium ion influx induced by capsaicin stimulation)”.

Question: Which “% Inhibition @ 1 uM” value does the source give for `COc1ccc(NC(=O)c2ccc(-c3ncccc3Cl)cc2)cn1` [Compound 1049] here?
Answer: Its value is “+ (compound exhibited 0-25% inhibition of calcium ion influx induced by capsaicin stimulation)”.

Question: How did the “% Inhibition @ 1 uM” value turn out when `O=C(Nc1ccnc(Cl)c1)c1ccc(-c2ncccc2Cl)cc1` [Compound 1050] was run?
Answer: Its value is “++++ (compound exhibited 75% or greater inhibition of calcium ion influx induced by capsaicin stimulation)”.

Question: With `O=C(Nc1ccc2c(c1)OCO2)c1ccc(-c2ncccc2Cl)cc1` [Compound 1051] as the compound, how does the “% Inhibition @ 1 uM” value read?
Answer: The value was “+ (compound exhibited 0-25% inhibition of calcium ion influx induced by capsaicin stimulation)”.

Question: Which “% Inhibition @ 1 uM” value does the source give for `Cc1cc(NC(=O)c2ccc(-c3ncccc3Cl)cc2)nc(C)n1` [Compound 1052] here?
Answer: The value was “+ (compound exhibited 0-25% inhibition of calcium ion influx induced by capsaicin stimulation)”.

Question: How did the “% Inhibition @ 1 uM” value turn out when `O=C(Nc1ccc2c(c1)Cc1ccccc1-2)c1ccc(-c2ncccc2Cl)cc1` [Compound 1053] was run?
Answer: Its value is “++ (compound exhibited 25-50% inhibition of calcium ion influx induced by capsaicin stimulation)”.

Question: `Cc1cc(C)nc(NC(=O)c2ccc(-c3ncccc3Cl)cc2)c1` [Compound 1054] was tested. Which “% Inhibition @ 1 uM” value did it give?
Answer: The value was “+ (compound exhibited 0-25% inhibition of calcium ion influx induced by capsaicin stimulation)”.

Question: With `O=C(Nc1nccs1)c1ccc(-c2ncccc2Cl)cc1` [Compound 1055] as the compound, how does the “% Inhibition @ 1 uM” value read?
Answer: Its value is “+ (compound exhibited 0-25% inhibition of calcium ion influx induced by capsaicin stimulation)”.

Question: For `CC(C)(CO)NC(=O)c1ccc(-c2ncccc2Cl)cc1` [Compound 1058], which “% Inhibition @ 1 uM” value is on record?
Answer: Its value is “+ (compound exhibited 0-25% inhibition of calcium ion influx induced by capsaicin stimulation)”.

Question: Which “% Inhibition @ 1 uM” value does the source give for `CN(C)c1cccc(NC(=O)c2ccc(-c3ncccc3Cl)cc2)c1` [Compound 1060] here?
Answer: Its value is “++++ (compound exhibited 75% or greater inhibition of calcium ion influx induced by capsaicin stimulation)”.

Question: `CCN(CC)c1ccc(NC(=O)c2ccc(-c3ncccc3Cl)cc2)cc1` [Compound 1061] was tested. Which “% Inhibition @ 1 uM” value did it give?
Answer: The value was “++++ (compound exhibited 75% or greater inhibition of calcium ion influx induced by capsaicin stimulation)”.

Question: With `O=C(Nc1ccc(N2CCOCC2)cc1)c1ccc(-c2ncccc2Cl)cc1` [Compound 1062] as the compound, how does the “% Inhibition @ 1 uM” value read?
Answer: The value was “+ (compound exhibited 0-25% inhibition of calcium ion influx induced by capsaicin stimulation)”.

Question: For `Cc1cccnc1NC(=O)c1ccc(-c2ncccc2Cl)cc1` [Compound 1065], which “% Inhibition @ 1 uM” value is on record?
Answer: Its value is “++ (compound exhibited 25-50% inhibition of calcium ion influx induced by capsaicin stimulation)”.

Question: How did the “% Inhibition @ 1 uM” value turn out when `O=C(Nc1ccc(Br)cn1)c1ccc(-c2ncccc2Cl)cc1` [Compound 1066] was run?
Answer: The value was “++ (compound exhibited 25-50% inhibition of calcium ion influx induced by capsaicin stimulation)”.

Question: `O=C(Nc1ccc(C(F)(F)F)cn1)c1ccc(-c2ncccc2Cl)cc1` [Compound 1067] was tested. Which “% Inhibition @ 1 uM” value did it give?
Answer: Its value is “++ (compound exhibited 25-50% inhibition of calcium ion influx induced by capsaicin stimulation)”.

Question: Which “% Inhibition @ 1 uM” value does the source give for `CCC(C)(C)NC(=O)c1ccc(-c2ncccc2Cl)cc1` [Compound 1070] here?
Answer: Its value is “+ (compound exhibited 0-25% inhibition of calcium ion influx induced by capsaicin stimulation)”.

Question: With `O=C(Nc1ccc2ncccc2c1)c1ccc(-c2ncccc2Cl)cc1` [Compound 1071] as the compound, how does the “% Inhibition @ 1 uM” value read?
Answer: The value was “+ (compound exhibited 0-25% inhibition of calcium ion influx induced by capsaicin stimulation)”.

Question: `CCC1c2ccccc2-c2cc(NC(=O)c3ccc(-c4ncccc4Cl)cc3)ccc21` (stereo not drawn) [Compound 1072] was tested. Which “% Inhibition @ 1 uM” value did it give?
Answer: The value was “++ (compound exhibited 25-50% inhibition of calcium ion influx induced by capsaicin stimulation)”.

Question: How did the “% Inhibition @ 1 uM” value turn out when `O=C(Nc1ccc([N+](=O)[O-])cc1)c1ccc(-c2ncccc2Cl)cc1` [Compound 1073] was run?
Answer: Its value is “++++ (compound exhibited 75% or greater inhibition of calcium ion influx induced by capsaicin stimulation)”.

Question: `O=C(Nc1ccc2ccccc2c1)c1ccc(-c2ncccc2Cl)cc1` [Compound 1074] was tested. Which “% Inhibition @ 1 uM” value did it give?
Answer: The value was “++++ (compound exhibited 75% or greater inhibition of calcium ion influx induced by capsaicin stimulation)”.

Question: Which “% Inhibition @ 1 uM” value does the source give for `O=C(Nc1ccncc1)c1ccc(-c2ncccc2Cl)cc1F` [Compound 1079] here?
Answer: The value was “+ (compound exhibited 0-25% inhibition of calcium ion influx induced by capsaicin stimulation)”.

Question: `O=C(Nc1cccnc1)c1ccc(-c2ncccc2Cl)cc1F` [Compound 1080] was tested. Which “% Inhibition @ 1 uM” value did it give?
Answer: Its value is “+ (compound exhibited 0-25% inhibition of calcium ion influx induced by capsaicin stimulation)”.

Question: `CC(C)(NC(=O)c1ccc(-c2ncccc2Cl)cc1F)c1ccccc1` [Compound 1083] was tested. Which “% Inhibition @ 1 uM” value did it give?
Answer: The value was “+ (compound exhibited 0-25% inhibition of calcium ion influx induced by capsaicin stimulation)”.
